Reference: ChEMBL document CHEMBL5465560, “Selectivity Literature for EUbOPEN Chemogenomic Library” (2024)
Values belong to the molecule of their own block, whether it stands above or below them.

Tests used:
[1] = target: Aurora kinase B (Homo sapiens, UniProt Q96GD4); experiment: Selectivity interaction (ActivX KiNativ screen (kinase selectivity in THP-1 cell lysates)) EUB0000639a AURKB; assay type: subcellular; details: lysate, at 0.2 µM
[2] = target: T1, Casein kinase I isoform alpha-like (Homo sapiens) (UniProt Q8N752); experiment: Selectivity interaction (Kinase panel (Z-LYTE Assay)) EUB0001632a CSNK1A1L; details: at 10 µM
T1 sequence (whole entry): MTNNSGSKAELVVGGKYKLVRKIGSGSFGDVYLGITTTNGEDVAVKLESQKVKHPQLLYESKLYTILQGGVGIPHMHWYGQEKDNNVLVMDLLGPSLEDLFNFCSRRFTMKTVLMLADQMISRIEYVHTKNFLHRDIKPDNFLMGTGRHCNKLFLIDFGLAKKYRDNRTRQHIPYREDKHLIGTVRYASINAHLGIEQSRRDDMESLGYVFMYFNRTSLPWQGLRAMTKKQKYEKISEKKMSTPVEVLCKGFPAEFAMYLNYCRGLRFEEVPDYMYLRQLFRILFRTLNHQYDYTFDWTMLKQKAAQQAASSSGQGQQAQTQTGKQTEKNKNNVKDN

[3] = target: T2, Serine/threonine-protein kinase ULK1 (Homo sapiens) (UniProt O75385); experiment: Selectivity interaction (KinomeScan (DiscoverX)) EUB0000595a ULK1; details: at 10 µM
T2 sequence (whole entry): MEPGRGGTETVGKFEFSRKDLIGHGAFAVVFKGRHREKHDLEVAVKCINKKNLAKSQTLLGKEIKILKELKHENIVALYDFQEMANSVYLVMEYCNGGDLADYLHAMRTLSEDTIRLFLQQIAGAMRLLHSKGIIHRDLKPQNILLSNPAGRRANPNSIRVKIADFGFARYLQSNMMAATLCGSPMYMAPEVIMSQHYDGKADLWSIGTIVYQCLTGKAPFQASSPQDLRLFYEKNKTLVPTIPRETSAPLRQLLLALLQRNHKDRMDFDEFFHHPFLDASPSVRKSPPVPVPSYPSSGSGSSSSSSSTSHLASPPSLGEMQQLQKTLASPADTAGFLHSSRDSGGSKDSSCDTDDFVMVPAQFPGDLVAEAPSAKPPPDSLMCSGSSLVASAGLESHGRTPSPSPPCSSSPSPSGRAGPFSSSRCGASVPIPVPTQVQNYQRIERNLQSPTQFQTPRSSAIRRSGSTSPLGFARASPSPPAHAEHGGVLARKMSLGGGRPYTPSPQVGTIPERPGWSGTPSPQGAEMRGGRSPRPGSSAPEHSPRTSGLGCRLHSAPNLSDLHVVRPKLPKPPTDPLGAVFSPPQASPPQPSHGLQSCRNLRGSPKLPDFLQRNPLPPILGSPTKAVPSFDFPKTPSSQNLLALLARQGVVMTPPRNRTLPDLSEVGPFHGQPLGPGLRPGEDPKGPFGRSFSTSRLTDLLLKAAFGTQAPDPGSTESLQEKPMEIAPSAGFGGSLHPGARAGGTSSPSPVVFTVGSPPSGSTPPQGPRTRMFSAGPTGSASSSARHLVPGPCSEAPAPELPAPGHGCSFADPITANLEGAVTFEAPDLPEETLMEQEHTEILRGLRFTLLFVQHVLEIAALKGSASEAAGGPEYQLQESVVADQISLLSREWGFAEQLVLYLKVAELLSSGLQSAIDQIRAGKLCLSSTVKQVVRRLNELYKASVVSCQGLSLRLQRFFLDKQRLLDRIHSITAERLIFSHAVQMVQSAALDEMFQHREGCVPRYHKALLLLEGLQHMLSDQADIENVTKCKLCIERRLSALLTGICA

[4] = target: T3, Phosphatidylinositol 5-phosphate 4-kinase type-2 beta (Homo sapiens) (UniProt P78356); details: at 10 µM
T3 sequence (whole entry): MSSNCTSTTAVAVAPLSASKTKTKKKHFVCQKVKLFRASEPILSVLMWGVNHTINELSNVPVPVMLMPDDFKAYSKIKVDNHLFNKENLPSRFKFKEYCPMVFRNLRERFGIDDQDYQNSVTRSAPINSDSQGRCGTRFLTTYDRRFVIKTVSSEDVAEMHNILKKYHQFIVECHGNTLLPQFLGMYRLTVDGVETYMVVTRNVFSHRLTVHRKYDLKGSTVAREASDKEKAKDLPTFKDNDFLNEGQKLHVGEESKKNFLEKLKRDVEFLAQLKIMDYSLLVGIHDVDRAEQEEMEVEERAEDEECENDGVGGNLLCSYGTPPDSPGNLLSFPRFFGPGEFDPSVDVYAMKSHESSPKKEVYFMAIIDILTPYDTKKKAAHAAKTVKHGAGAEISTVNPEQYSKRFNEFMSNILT

[5] = target: T4, 5-hydroxytryptamine receptor 1A (Homo sapiens) (UniProt P08908); experiment: Selectivity interaction (Safety Panel 44tm (Eurofins)) EUB0000162b HTR1A; details: at 10 µM
T4 sequence (whole entry): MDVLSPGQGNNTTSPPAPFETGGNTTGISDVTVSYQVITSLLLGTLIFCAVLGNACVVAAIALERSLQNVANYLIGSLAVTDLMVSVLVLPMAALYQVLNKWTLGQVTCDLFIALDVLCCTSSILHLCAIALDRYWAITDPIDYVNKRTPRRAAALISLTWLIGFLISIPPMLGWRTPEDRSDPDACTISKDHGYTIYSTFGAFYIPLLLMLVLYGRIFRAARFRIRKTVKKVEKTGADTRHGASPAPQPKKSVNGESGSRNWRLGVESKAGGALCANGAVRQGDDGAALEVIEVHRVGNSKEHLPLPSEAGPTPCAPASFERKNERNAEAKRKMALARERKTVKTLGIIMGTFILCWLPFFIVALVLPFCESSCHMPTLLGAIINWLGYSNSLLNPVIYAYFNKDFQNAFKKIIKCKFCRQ

[6] = target: Homeodomain-interacting protein kinase 1 (Homo sapiens, UniProt Q86Z02); experiment: Selectivity interaction (SelectScreen profiling (Invitrogen)) EUB0000607a HIPK1; details: at 2 µM
[7] = target: Vascular endothelial growth factor receptor 2 (Homo sapiens, UniProt P35968); experiment: Selectivity interaction (KinomeScan (DiscoverX)) EUB0000607a KDR; details: at 10 µM
[8] = target: PAS domain-containing serine/threonine-protein kinase (Homo sapiens) (UniProt Q96RG2); experiment: Selectivity interaction (SelectScreen profiling (Invitrogen)) EUB0000607a PASK; details: at 2 µM
[9] = target: Proto-oncogene tyrosine-protein kinase Src (Homo sapiens, UniProt P12931); experiment: Selectivity interaction (Kinase panel (DSF assay)) EUB0001558a SRC
Sequence of Proto-oncogene tyrosine-protein kinase Src (P12931 2-536 limits assumed): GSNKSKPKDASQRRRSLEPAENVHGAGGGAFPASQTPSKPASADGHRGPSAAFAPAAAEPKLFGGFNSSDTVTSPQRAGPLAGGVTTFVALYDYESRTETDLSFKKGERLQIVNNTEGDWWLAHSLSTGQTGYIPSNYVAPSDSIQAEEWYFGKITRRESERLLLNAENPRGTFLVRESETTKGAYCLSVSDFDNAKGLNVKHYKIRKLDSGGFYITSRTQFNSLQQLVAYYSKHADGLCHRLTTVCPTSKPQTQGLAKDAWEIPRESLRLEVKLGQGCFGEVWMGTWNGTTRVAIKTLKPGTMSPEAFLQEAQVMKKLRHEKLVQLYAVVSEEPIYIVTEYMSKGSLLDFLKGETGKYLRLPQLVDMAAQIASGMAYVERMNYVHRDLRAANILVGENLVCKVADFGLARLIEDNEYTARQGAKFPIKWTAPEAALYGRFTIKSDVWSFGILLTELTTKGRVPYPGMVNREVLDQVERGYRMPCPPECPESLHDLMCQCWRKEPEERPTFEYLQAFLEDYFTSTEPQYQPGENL

Sequence of Homeodomain-interacting protein kinase 1 (Q86Z02 whole entry, looked up): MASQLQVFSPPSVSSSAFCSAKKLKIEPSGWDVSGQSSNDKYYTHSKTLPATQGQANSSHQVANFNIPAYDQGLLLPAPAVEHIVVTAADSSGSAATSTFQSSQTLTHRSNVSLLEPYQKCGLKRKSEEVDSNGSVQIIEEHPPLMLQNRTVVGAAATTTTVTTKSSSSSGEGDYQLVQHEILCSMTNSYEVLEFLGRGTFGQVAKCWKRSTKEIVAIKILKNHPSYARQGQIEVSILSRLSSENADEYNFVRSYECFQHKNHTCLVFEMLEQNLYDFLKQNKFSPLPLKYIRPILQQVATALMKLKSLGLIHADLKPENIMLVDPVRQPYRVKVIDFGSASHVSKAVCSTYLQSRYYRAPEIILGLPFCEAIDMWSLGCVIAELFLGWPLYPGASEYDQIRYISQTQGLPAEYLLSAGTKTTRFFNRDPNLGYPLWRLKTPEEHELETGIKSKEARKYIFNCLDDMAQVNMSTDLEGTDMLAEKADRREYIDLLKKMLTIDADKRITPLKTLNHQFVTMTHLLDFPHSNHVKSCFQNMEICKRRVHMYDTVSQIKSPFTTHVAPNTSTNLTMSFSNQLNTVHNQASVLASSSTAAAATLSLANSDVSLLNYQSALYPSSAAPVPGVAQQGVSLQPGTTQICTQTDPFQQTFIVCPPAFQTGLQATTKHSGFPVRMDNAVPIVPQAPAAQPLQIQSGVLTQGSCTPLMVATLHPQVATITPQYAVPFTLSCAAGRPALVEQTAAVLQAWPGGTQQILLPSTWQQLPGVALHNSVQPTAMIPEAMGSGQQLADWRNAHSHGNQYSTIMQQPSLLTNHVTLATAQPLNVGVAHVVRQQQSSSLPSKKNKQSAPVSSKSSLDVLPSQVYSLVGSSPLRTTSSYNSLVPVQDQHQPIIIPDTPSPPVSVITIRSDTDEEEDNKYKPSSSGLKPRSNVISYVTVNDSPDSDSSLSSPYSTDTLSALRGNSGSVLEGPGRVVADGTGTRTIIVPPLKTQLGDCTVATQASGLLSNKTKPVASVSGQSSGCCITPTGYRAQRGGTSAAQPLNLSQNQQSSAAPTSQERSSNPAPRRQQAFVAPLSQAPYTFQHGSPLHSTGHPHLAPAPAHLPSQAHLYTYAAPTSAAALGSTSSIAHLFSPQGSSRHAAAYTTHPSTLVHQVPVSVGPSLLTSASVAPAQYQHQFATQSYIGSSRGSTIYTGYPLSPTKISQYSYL
Sequence of Aurora kinase B (Q96GD4 whole entry, canonical isoform): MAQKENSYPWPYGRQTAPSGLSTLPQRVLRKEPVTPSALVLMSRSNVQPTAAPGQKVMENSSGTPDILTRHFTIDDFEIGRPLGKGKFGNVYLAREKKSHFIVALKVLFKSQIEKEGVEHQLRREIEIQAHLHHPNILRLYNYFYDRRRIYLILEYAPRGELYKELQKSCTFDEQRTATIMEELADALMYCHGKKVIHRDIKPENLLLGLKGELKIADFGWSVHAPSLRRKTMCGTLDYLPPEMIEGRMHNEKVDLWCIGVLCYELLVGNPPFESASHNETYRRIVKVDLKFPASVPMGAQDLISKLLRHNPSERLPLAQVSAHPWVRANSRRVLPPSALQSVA
Sequence of Vascular endothelial growth factor receptor 2 (P35968 whole entry, the tested form may be a part): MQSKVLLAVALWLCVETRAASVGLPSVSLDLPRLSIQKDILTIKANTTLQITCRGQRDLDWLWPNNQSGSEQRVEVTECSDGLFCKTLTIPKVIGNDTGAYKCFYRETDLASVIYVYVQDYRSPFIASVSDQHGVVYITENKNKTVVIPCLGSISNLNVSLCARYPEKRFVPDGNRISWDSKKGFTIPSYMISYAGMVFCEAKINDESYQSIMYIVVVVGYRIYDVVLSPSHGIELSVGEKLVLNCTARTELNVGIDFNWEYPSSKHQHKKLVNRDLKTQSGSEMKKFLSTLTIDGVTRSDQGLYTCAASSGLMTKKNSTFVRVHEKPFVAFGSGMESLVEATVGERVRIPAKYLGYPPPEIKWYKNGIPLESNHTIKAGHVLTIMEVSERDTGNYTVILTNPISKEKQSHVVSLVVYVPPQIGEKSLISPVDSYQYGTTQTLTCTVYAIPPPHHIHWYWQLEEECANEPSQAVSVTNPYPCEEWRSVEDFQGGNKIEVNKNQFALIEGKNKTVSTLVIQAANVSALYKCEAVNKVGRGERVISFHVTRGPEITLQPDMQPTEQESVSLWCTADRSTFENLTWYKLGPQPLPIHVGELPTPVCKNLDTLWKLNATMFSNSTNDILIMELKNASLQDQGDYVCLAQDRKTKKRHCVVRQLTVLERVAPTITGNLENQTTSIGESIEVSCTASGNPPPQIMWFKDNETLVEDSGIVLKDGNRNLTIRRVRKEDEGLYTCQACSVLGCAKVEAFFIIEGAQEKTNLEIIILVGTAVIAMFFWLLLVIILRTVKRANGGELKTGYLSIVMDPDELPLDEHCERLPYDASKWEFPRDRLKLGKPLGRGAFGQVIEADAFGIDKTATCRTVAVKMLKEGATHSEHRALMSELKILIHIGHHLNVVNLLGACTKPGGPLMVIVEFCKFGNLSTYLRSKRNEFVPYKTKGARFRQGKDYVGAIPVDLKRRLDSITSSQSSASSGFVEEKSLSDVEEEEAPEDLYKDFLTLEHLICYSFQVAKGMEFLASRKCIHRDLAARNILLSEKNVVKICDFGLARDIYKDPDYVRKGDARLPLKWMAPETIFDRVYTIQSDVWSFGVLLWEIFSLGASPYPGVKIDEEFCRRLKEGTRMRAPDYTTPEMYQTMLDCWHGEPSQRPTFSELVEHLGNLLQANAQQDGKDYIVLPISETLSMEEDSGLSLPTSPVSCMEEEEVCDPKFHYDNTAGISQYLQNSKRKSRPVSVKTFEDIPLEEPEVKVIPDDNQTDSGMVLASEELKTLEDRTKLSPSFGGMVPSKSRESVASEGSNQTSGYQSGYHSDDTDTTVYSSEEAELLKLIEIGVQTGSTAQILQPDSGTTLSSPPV
Sequence of PAS domain-containing serine/threonine-protein kinase (Homo sapiens) (Q96RG2 whole entry, the tested form may be a part): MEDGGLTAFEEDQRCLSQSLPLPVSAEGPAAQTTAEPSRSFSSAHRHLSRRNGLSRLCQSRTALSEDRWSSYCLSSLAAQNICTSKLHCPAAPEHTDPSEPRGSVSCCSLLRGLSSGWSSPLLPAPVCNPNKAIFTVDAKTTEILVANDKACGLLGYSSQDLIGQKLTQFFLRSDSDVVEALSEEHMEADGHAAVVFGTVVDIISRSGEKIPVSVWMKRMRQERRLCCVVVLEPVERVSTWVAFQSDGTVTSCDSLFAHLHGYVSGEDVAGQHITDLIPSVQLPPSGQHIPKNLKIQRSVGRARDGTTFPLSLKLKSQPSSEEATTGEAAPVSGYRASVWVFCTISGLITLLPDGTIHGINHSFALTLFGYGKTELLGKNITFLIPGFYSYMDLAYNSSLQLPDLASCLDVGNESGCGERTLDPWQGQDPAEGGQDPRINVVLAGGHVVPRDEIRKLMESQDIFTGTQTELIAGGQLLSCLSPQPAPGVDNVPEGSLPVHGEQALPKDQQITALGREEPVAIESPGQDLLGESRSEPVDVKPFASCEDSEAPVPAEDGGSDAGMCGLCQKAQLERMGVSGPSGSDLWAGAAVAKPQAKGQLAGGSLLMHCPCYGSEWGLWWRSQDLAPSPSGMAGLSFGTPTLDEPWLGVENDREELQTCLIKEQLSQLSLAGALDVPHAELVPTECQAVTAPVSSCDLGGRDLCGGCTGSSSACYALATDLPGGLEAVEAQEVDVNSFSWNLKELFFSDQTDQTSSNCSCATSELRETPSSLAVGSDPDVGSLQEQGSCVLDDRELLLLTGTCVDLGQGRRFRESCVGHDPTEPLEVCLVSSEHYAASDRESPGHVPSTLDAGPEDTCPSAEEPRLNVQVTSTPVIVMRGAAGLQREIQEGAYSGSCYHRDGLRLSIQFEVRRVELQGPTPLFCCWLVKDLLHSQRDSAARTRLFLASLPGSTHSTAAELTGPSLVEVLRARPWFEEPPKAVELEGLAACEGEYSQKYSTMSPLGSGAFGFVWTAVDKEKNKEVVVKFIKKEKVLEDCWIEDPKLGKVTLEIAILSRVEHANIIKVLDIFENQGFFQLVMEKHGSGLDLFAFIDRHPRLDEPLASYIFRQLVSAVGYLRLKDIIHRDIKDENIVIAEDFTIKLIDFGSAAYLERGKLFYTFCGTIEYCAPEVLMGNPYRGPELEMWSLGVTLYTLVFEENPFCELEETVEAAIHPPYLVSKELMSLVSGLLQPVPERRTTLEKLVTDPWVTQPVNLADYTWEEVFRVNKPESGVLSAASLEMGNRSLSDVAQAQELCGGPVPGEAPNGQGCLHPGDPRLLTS

% of inhibition [1]: -1%
Structure (SMILES): CC[C@@H]1[C@H](F)C(=O)N[C@@H]1COc1nccc2cc(C(N)=O)c(OC)cc12 [ZIMLOVISERTIB]

% of control [2]: -0.03%
Structure (SMILES): Cn1cc(-n2cnc3c(NCc4nc5cc(Cl)c(Cl)cc5[nH]4)nc(N4CCOCC4)nc32)cn1

Structure (SMILES): COCC(=O)NC/C=C/c1ccc2ncnc(Nc3ccc(Oc4ccc(C)nc4)c(C)c3)c2c1 [CP-724714]
% of control [3]: 47% | % of control [4]: 100%

Structure (SMILES): CN(C)C(=O)Cn1cc(-c2ccc(-c3cncc4ccccc34)cc2)cn1
% of control [5]: 50%

Structure (SMILES): CNC(=O)Nc1ccc(-c2nc(N3CC4CCC(C3)O4)c3cnn(C4CCC5(CC4)OCCO5)c3n2)cc1
% of inhibition [6]: 1% | % of control [7]: 76% | % of inhibition [8]: 3%

Structure (SMILES): CC(C)(O)[C@H](F)CN1Cc2cc(NC(=O)c3cnn4cccnc34)c(N3CCOCC3)cc2C1=O
dTM [9]: 2 K
